pIC50: −log10 of the molar value. “Also recorded” adds a separate entry of the source.
Experiments:
FLOW = assay: CT-Glo cytotoxicity assay, FLOW cells; type: cell-based; conditions: 72-h CT-Glo, average ± SD
Protocol: (§1) The molecules with the highest docking scores were assayed for IC50 values. Cultures were tested for cytotoxicity using the CellTiter-Glo assay (CT-Glo cytotoxicity assay; Promega, Madison, Wis.), a luminescence-based homogeneous method for determining the number of viable cells in culture based on quantitation of the ATP present, which signals the presence of metabolically active cells (Corsino, et al., A novel class of cyclin-dependent kinase inhibitors identified by molecular docking act through a unique mechanism. J Biol Chem 2009; 284: 29945-55; Homsi, et al., Src activation in melanoma and Src inhibitors as therapeutic agents in melanoma. Melanoma Res 2009; 19: 167-75). All cells were assayed at log-phase growth conditions. Luminescence was measured with a Synergy 4 microplate reader (Bio-Tek Instruments, Inc., Winooski, Vt.). IC50 values were determined using a sigmoidal equilibrium model regression using XLfit version 5.2 (ID Business Solutions Ltd., Surrey, UK) (Corsino, et al., A novel class of cyclin-dependent kinase inhibitors identified by molecular docking act through a unique mechanism. J Biol Chem 2009; 284: 29945-55).

p53 = p53 nuclear export in low-density myeloma cells (nuclear fraction Western blot); type: cell-based, human; conditions: H929 at low density (log growth), 25 μM, 20 hours
Protocol: FIG. 14 is a blot of lead compounds tested to determine if nuclear export inhibition was specific to topo IIα protein. p53 was cycled from the nucleus into the cytoplasm in MM cells cultured at log growth conditions. Cells grown at log-phase concentrations were treated with the lead NES inhibitors (25 μM) or a leptomycin control for 20 hours and chemically fractionated. Nuclei were assayed by SDS-PAGE Western blot analysis for p53 protein (anti-p53 (DO-1), Santa Cruz Biotech, Inc). […] Lamin A/C (anti-lamin A/C, BD Pharmingen) is shown as a loading control.
Cells grown at low concentrations were treated with the lead NES inhibitors (25 μM) or a leptomycin B (5 nM) control for 20 hours and chemically fractionated. Nuclei were assayed by SDS-PAGE Western blot analysis for p53 protein.

PBMC = assay: CT-Glo cytotoxicity assay, PBMC; type: cell-based; conditions: 72-h CT-Glo, average ± SD
Protocol: as §1

Kg-1a = assay: CT-Glo cytotoxicity assay, Kg-1a cells; type: cell-based; conditions: Homo sapiens, 72-h CT-Glo
Protocol: as §1

HL-60 = assay: CT-Glo cytotoxicity assay, HL-60 cells; type: cell-based; conditions: Homo sapiens, 72-h CT-Glo
Protocol: as §1

topo IIα = molecular target: T1, topo IIα (Homo sapiens, UniProt P11388); assay: Nuclear-cytoplasmic fractionation and Western blot for topo IIα; type: cell-based; conditions: RPMI-H929 cells, 100 μM, 24 hours, relative to untreated controls
T1 construct: effect on the intracellular location of topo IIα in treated MM cells; endogenous in cells; host or cells: human multiple myeloma cells NCI-H929

CRM1-topo IIα complexes = molecular target: T2, CRM1-topo IIα complexes (Homo sapiens, UniProt P11388); assay: Co-immunoprecipitation of CRM1 with topo IIα; type: cell-based
T2 construct: CRM1-topo IIα complexes were isolated from cells by immunoprecipitation; endogenous in cells
Protocol: Human myeloma cells were placed at plateau concentrations (4×10^6 cells/ml), and NES inhibitors were added at 25 μM for 20 hours. Cells were collected, washed in PBS, and fractionated by a method adapted from Li et al. (Li Y, Bor Y C, Misawa Y, Xue Y, Rekosh D, Hammarskjold M L. An intron with a constitutive transport element is retained in a Tap messenger RNA. Nature 2006; 443: 234-7). Separated fractions containing nuclei or precipitated cytosol were dissolved in 2% SDS buffer and assayed by SDS-PAGE Western blot analysis. Blots were probed with an anti-topo IIα Kis1 antibody (Millipore Corp.). Lead compounds were also tested to determine if nuclear export inhibition was specific to topo IIα protein. Cells grown at log-phase concentrations were also fractionated. […], CRM1-topo IIα complexes were isolated from cells by immunoprecipitation using a combination of both protein A and protein G magnetic beads according to the manufacturer's protocol (Miltenyi Biotec, Cologne, Germany). Co-immunoprecipitation was performed with 2 μg of anti-CRM1 antibody (Santa Cruz Biotechnology, Inc., Santa Cruz, Calif.). Immunoprecipitation samples were separated by SDS-PAGE, transferred to nitrocellulose membranes, and probed with anti-topo IIα Kis1 antibody (Millipore, Corp., Billerica, Mass.) and anti-mouse horseradish peroxidase secondary antibody.

[1] = system: high-density MM cells (H929); assay: Cleaved caspase 3 apoptosis assay, sensitization to doxorubicin
WI-38 = assay: CT-Glo cytotoxicity assay, WI-38 cells; type: cell-based; conditions: Homo sapiens, 72-h CT-Glo
Protocol: as §1

[2] = system: cells modeling AML, breast cancer and fibroblastoma; assay: Combination of NCI-9138 with other drugs (FIG. 8); type: cell-based; conditions: 25 μM with doxorubicin 2 μM, bortezomib 10 nM, dexamethasone, lenalidomide, melphalan, topotecan 10 μM
NCI-H929 (H929) = assay: CT-Glo cytotoxicity assay, H929 cells; type: cell-based, human; conditions: Homo sapiens, NCI-H929, 72-h CT-Glo, average ± SD
Source text: Compounds identified in Example 1 as the top scoring potential inhibitors for each of the two NES (20 each) were obtained from NCI and structures of these molecules confirmed using NMR and mass spectroscopy analysis, seen in FIGS. 4(A)-(C) and 5(A)-(D). The potential inhibitors were followed up using in vitro model cell cultures. MM cell lines NCI-H929 (H929) and RPMI-8226 (8226) were obtained from and tested for authenticity by the American Type Culture Collection (Manassas, Va.). All cell lines were grown as described previously (Turner, et al., Human topoisomerase IIalpha nuclear export is mediated by two CRM-1-dependent nuclear export signals. J Cell Sci 2004; 117: 3061-71).
as §1

T2 sequence (P11388 whole entry, one chain of several): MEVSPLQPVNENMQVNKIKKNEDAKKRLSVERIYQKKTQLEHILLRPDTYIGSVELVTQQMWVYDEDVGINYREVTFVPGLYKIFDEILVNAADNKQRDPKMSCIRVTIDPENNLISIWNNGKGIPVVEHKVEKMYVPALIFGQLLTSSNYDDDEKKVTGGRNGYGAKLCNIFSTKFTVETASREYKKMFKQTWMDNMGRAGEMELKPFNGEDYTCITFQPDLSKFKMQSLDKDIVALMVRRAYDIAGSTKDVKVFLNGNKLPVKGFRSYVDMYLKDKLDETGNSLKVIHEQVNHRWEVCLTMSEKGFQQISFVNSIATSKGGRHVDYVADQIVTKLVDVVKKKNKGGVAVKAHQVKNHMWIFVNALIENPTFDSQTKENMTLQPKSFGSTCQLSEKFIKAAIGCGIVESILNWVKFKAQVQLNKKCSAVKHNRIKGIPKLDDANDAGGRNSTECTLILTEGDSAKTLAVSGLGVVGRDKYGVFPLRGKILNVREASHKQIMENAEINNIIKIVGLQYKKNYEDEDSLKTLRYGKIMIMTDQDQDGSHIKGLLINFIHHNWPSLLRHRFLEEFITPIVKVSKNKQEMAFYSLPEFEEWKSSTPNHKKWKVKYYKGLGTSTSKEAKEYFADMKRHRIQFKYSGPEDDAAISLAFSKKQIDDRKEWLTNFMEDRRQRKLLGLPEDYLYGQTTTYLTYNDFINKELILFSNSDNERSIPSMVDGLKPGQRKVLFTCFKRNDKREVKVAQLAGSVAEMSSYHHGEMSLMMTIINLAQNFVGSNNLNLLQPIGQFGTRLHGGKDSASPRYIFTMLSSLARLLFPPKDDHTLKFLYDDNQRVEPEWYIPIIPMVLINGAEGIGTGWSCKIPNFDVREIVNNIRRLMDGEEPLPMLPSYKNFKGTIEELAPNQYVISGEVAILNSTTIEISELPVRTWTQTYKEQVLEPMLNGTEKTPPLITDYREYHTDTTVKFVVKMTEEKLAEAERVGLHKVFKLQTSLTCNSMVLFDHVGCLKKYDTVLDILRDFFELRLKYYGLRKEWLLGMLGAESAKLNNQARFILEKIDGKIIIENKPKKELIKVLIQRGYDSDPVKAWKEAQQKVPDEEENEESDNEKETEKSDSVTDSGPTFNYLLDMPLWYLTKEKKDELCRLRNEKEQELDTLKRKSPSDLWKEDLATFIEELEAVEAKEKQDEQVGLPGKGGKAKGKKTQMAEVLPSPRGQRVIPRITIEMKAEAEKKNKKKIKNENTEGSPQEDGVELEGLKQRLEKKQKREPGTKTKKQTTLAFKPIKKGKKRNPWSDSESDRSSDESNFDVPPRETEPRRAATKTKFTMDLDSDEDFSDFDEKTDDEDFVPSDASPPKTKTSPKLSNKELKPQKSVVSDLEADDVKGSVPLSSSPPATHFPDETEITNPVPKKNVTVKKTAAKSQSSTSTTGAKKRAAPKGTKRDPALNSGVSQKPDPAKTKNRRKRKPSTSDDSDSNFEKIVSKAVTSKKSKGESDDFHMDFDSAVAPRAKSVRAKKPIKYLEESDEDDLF
T1 sequence (P11388 whole entry): as the sequence (P11388 whole entry, one chain of several) above

With O=C1c2ccccc2C(=O)C1C(=O)C(c1ccccc1)c1ccccc1 [NCI-9138, 2-(diphenylacetyl)-1H-indene-1,3(2H)-dione] the pIC50 (FLOW) was 4.50, the “Nuclear export of p53” value (p53) was “did not prevent export of p53” and the pIC50 (PBMC) was 4.49. The pIC50 (Kg-1a) was 4.67, the pIC50 (HL-60) was 4.55 and the “Cytoplasmic level / nuclear localization of topo IIα, fractionation Western blot” value (topo IIα) was “reduced cytoplasmic levels of topo IIα equivalent to that produced by the CRM-1 inhibitor ratjadone C”. For the same molecule, the “Co-immunoprecipitation of CRM1 with topo IIα” value (CRM1-topo IIα complexes; 50 μM for 20 hours (FIG. 12 legend)) was “blocked”, the “Binding of topo IIα to CRM1 (co-immunoprecipitation)” value (CRM1-topo IIα complexes; MM cells, 25 μM for 20 hours) was “prevented from binding to CRM1” and the “Sensitization of high-density MM cells to doxorubicin / synergism” value ([1]; 25 μM NES inhibitor, doxorubicin 2 μM) was “synergized with the topo II inhibitor doxorubicin”. For the same molecule, the “Fold-Increased sensitization to dox” value ([1]; dox/drug (dox 2 μM) divided by dox alone) was 4.13 ± 1.83 fold, the pIC50 (WI-38) was 4.52 and the “Synergism of NCI-9138 in drug combinations” value [2] was “Synergism was seen with doxorubicin; also recorded: synergized exclusively with the topo II inhibitor doxorubicin”. For the same molecule, the pIC50 (NCI-H929 (H929)) was 4.65.
